ChEMBL document CHEMBL1128575, “Nonpeptidic inhibitors of human leukocyte elastase. 5. Design, synthesis, and X-ray crystallography of a series of orally active 5-aminopyrimidin-6-one-containing trifluoromethyl ketones” (J Med Chem, 1995)
Values after ≈ are worked out from the molar mass of the structure shown. Active and inactive are the calls of the source. No cut-off for these calls is given here.

Key:
Cricetinae gen. sp. [1] = assay: Oral dose of 20 mg/Kg (30 min prior to instillation of elastase) was tested for the inhibition of elastase-induced lung hemorrhage in hamster; format: functional, Cricetulus griseus
[2] = Half life in plasma in hamster at 10 mg/kg oral dose; format: ADME, organism-based; design: dose 10 mg/kg, route oral; conditions: cricetinae
Cricetinae gen. sp. [3] = assay: Oral dose of 2.5 mg/Kg (90 min prior to instillation of elastase) was tested for the inhibition of elastase-induced lung hemorrhage in hamster; format: functional, Cricetulus griseus
[4] = Half life in plasma in rat at 10 mg/kg oral dose; format: ADME, organism-based; design: dose 10 mg/kg, route oral
[5] = Area under the concentration vs time curve in hamster at 10 mg/kg oral dose; format: ADME, organism-based; design: dose 10 mg/kg, route oral; conditions: cricetinae, in vivo
[6] = Area under the concentration vs time curve in dog at 10 mg/kg oral dose; format: ADME, organism-based, Canis lupus familiaris; design: dose 10 mg/kg, route oral; conditions: in vivo
Cricetinae gen. sp. [7] = assay: Oral dose of 2.5 mg/Kg (30 min prior to instillation of elastase) was tested for the inhibition of elastase-induced lung hemorrhage in hamster; format: functional, Cricetulus griseus
[8] = Tmax is the time of maximum concentration in dog at 10 mg/kg oral dose; format: ADME, organism-based, Canis lupus familiaris; design: dose 10 mg/kg, route oral; conditions: in vivo
[9] = Maximum concentration in plasma recorded in the period 0-6 hr post dose in rat at 10 mg/kg oral dose; format: ADME, organism-based; design: dose 10 mg/kg, route oral
[10] = Tmax is the time of maximum concentration in rat at 10 mg/kg oral dose; format: ADME, organism-based; design: dose 10 mg/kg, route oral; conditions: in vivo
[11] = Maximum concentration in plasma recorded 0-6 hr post dose in dog at 10 mg/kg oral dose; format: ADME, organism-based, Canis lupus familiaris; design: dose 10 mg/kg, route oral
[12] = Maximum concentration in plasma recorded in the period 0-6 hr post dose in hamster at 10 mg/kg oral dose; format: ADME, organism-based; design: dose 10 mg/kg, route oral; conditions: cricetinae
[13] = Area under the concentration vs time curve in rat at 10 mg/kg oral dose; format: ADME, organism-based; design: dose 10 mg/kg, route oral; conditions: in vivo
[14] = Half life in plasma in dog at 10 mg/kg oral dose; format: ADME, organism-based, Canis lupus familiaris; design: dose 10 mg/kg, route oral
[15] = Tmax is the time of maximum concentration in hamster at 10 mg/kg oral dose; format: ADME, organism-based; design: dose 10 mg/kg, route oral; conditions: cricetinae, in vivo
[16] = Partition coefficient (logP); format: physicochemical; conditions: octanol/water
Cricetinae gen. sp. [17] = assay: Oral dose of 2.5 mg/Kg (30 min prior to instillation of elastase) was tested for the inhibition of elastase-induced lung hemorrhage in hamster; Not active; format: functional, organism-based; conditions: Cricetulus griseus
Neutrophil elastase = target: T1, Neutrophil elastase (Homo sapiens, UniProt P08246); assay: In vitro inhibition of human leukocyte elastase mediated hydrolysis of the synthetic substrate MeO-Suc-Ala-Ala-Pro-Val-pNA
T1 sequence (P08246 whole entry): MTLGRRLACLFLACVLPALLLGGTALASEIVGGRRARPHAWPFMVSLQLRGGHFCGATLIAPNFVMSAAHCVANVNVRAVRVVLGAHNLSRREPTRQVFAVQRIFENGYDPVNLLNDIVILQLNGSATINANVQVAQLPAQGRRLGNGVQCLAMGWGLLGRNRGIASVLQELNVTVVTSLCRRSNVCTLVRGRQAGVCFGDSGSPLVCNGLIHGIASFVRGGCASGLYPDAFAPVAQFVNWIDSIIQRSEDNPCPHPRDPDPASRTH

[18] = Solubility of compound in 0.01 M sodium phosphate buffer at pH = […]; format: physicochemical; conditions: pH 7.4
[19] = Selectivity ratio for bovine pancreatic chymotrypsin and HLE
Cricetinae gen. sp. [20] = assay: Oral dose of 20 mg/Kg (30 min prior to instillation of elastase) was tested for the inhibition of elastase-induced lung hemorrhage in hamster; Not active; format: functional, organism-based; conditions: Cricetulus griseus
Cricetinae gen. sp. [21] = assay: Compound at an oral dose of 2.5 mg/Kg (90 min prior to instillation of elastase) was tested for the inhibition of elastase-induced lung hemorrhage in hamster; Not active; format: functional, organism-based; conditions: Cricetulus griseus
Cricetinae gen. sp. [22] = assay: Compound at an oral dose of 20 mg/Kg (90 min prior to instillation of elastase) was tested for the inhibition of elastase-induced lung hemorrhage in hamster; format: functional, Cricetulus griseus

Structure (SMILES) | Ki (Neutrophil elastase) [µM] | Ratio [19] | inhibition in vivo at 20 mg/kg (Cricetinae gen. sp. [1]) [%] | inhibition (Cricetinae gen. sp. [20]) | further results
CC(C)C(NC(=O)Cn1c(-c2ccc(F)cc2)ncc(N)c1=O)C(=O)C(F)(F)F (stereo not given) | – | – | 66 | – | half-life [2]: 1.35 h; inhibition in vivo at 2.5 mg/kg (Cricetinae gen. sp. [3]): 49%; half-life [4]: 1.6 h; AUC [5]: 1.19 µg·h/mL; AUC [6]: 5.95 µg·h/mL; inhibition in vivo at 2.5 mg/kg (Cricetinae gen. sp. [7]): 43%; Tmax [8]: 1 h; Cmax [9]: 1.9 µg/mL; Tmax [10]: 1 h; Cmax [11]: 3.23 µg/mL; Cmax [12]: 0.75 µg/mL; AUC [13]: 5.17 µg·h/mL; half-life [14]: 0.967 h; Tmax [15]: 0.25 h
CC(C)C(NC(=O)Cn1c(-c2ccccc2)ncc(NC(=O)OCc2ccccc2)c1=O)C(=O)C(F)(F)F (stereo not given) | – | – | 54 | – | logP [16]: 2.1
CC(C)C(NC(=O)Cn1c(-c2ccc(F)cc2)ncc(NC(=O)OCc2ccccn2)c1=O)C(=O)C(F)(F)F (stereo not given) | 0.022 | – | – | inactive | –
CC(C)C(NC(=O)Cn1c(-c2ccc(N)cc2)ncc(NC(=O)OCc2ccccc2)c1=O)C(=O)C(F)(F)F (stereo not given) | 0.0036 | – | – | inactive | –
CC(C)C(NC(=O)Cn1c(C2CCCCC2)ncc(NC(=O)OCc2ccccc2)c1=O)C(=O)C(F)(F)F (stereo not given) | 0.057 | – | – | inactive | logP [16]: 2.9; solubility [18]: 0.042 mg/mL (≈ 78.3 µM)
CC(C)C(NC(=O)Cn1c(-c2ccc([N+](=O)[O-])cc2)ncc(NC(=O)OCc2ccccc2)c1=O)C(=O)C(F)(F)F (stereo not given) | 0.017 | 406 | – | inactive | –
CC(C)C(NC(=O)Cn1c(-c2ccccc2)ncc(NC(=O)C(F)(F)F)c1=O)C(=O)C(F)(F)F (stereo not given) | 0.094 | – | 73 | – | inhibition (Cricetinae gen. sp. [21]): inactive; inhibition in vivo at 2.5 mg/kg (Cricetinae gen. sp. [7]): 37%
CC(C)c1ncc(NC(=O)OCc2ccccc2)c(=O)n1CC(=O)NC(C(=O)C(F)(F)F)C(C)C (stereo not given) | 0.17 | 100 | – | inactive | logP [16]: 2.6; solubility [18]: 0.04 mg/mL (≈ 80.6 µM)
CC(C)C(NC(=O)Cn1c(-c2cc(C(F)(F)F)cc(C(F)(F)F)c2)ncc(NC(=O)OCc2ccccc2)c1=O)C(=O)C(F)(F)F (stereo not given) | 0.072 | – | – | inactive | –
CC(C)C(NC(=O)Cn1c(-c2ccc(C(F)(F)F)cc2)ncc(NC(=O)OCc2ccccc2)c1=O)C(=O)C(F)(F)F (stereo not given) | 0.042 | 164 | – | inactive | logP [16]: 2.3; solubility [18]: 0.025 mg/mL (≈ 41.8 µM)
CC(C)C(NC(=O)Cn1c(-c2cc(F)cc(F)c2)ncc(NC(=O)OCc2ccccc2)c1=O)C(=O)C(F)(F)F (stereo not given) | 0.02 | 230 | 43 | – | –
CC(C)C(NC(=O)Cn1c(-c2ccc(NC=O)cc2)ncc(NC(=O)OCc2ccccc2)c1=O)C(=O)C(F)(F)F (stereo not given) | 0.009 | – | – | inactive | –
CC(C)C(NC(=O)Cn1c(-c2ccccc2)ncc(NC(=O)OCC(F)(F)F)c1=O)C(=O)C(F)(F)F (stereo not given) | 0.04 | – | – | – | inhibition in vivo at 2.5 mg/kg (Cricetinae gen. sp. [3]): 39%; inhibition in vivo at 20 mg/kg (Cricetinae gen. sp. [22]): 47%
COc1ccc(-c2ncc(NC(=O)OCc3ccccc3)c(=O)n2CC(=O)NC(C(=O)C(F)(F)F)C(C)C)cc1 (stereo not given) | 0.0081 | 272 | – | inactive | –

Second part, led by results:

Ki (Neutrophil elastase) [µM] | Ratio [19] | Structure (SMILES) | inhibition in vivo at 20 mg/kg (Cricetinae gen. sp. [1]) [%] | inhibition (Cricetinae gen. sp. [20]) | further results
0.0077 | – | COC(=O)Nc1cnc(-c2ccc(F)cc2)n(CC(=O)NC(B2OC(C)(C)C(C)(C)O2)C(C)C)c1=O (stereo not given) | – | – | inhibition (Cricetinae gen. sp. [17]): inactive
0.011 | 162 | CC(C)C(NC(=O)Cn1c(-c2cccs2)ncc(NC(=O)OCc2ccccc2)c1=O)C(=O)C(F)(F)F (stereo not given) | 57 | – | logP [16]: 2; solubility [18]: 0.048 mg/mL (≈ 89.5 µM)
0.0049 | – | CC(C)C(NC(=O)Cn1c(-c2cccs2)ncc(N)c1=O)B1OC(C)(C)C(C)(C)O1 (stereo not given) | 50 | – | inhibition (Cricetinae gen. sp. [17]): inactive
0.0062 | – | CC(C)C(NC(=O)Cn1c(-c2ccc(F)cc2)ncc(N)c1=O)B1OC(C)(C)C(C)(C)O1 (stereo not given) | 39 | – | inhibition (Cricetinae gen. sp. [17]): inactive
0.027 | – | CC(C)C(NC(=O)Cn1c(-c2cccs2)ncc(NC(=O)OC(C)(C)C)c1=O)C(=O)C(F)(F)F (stereo not given) | 92 | – | inhibition in vivo at 2.5 mg/kg (Cricetinae gen. sp. [3]): 33%; inhibition in vivo at 2.5 mg/kg (Cricetinae gen. sp. [7]): 50%
0.1 | – | CC(C)C(NC(=O)Cn1c(-c2cccs2)ncc(NC=O)c1=O)C(=O)C(F)(F)F (stereo not given) | – | – | inhibition in vivo at 2.5 mg/kg (Cricetinae gen. sp. [3]): 37%; inhibition in vivo at 20 mg/kg (Cricetinae gen. sp. [22]): 58%
